Where two headings read alike, the source gives them in different places.
Assays:
[1] = test system: A2780 cells; assay: In-vitro cell proliferation assay (SRB), A2780 cells; assay type: cell-based; settings: Homo sapiens, A2780, 72 h, A2780 cells, 72 hours, read-out: A2780 IC50
How it was run: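 Viable cells measured by SRB staining after 6% TCA fixation, absorbance 570 nm. Media-only background subtracted; % inhibition derived at two compound concentrations.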

[2] = molecular target: T1, NAMPT (Homo sapiens, UniProt P43490); assay: Biochemical inhibition assay: NAMPT enzymatic reaction, NMN quantified by mass spectrometry; settings: read-out: Biochem IC50
T1 construct: His tag; host or cells: E. coli
T1 sequence (P43490 whole entry): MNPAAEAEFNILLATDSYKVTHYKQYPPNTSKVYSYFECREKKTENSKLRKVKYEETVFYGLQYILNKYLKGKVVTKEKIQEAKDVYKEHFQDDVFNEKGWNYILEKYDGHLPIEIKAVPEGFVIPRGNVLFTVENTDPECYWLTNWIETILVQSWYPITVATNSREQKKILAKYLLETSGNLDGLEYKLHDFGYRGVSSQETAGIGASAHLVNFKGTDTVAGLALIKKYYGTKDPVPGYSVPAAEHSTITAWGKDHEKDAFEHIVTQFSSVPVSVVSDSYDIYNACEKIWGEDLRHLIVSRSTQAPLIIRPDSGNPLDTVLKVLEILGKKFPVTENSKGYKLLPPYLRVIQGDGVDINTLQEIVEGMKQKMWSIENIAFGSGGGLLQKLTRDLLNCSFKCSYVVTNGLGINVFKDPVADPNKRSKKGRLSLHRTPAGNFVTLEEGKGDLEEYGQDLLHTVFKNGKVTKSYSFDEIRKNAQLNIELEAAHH
How it was run: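 Inhibition of E. coli-expressed His-tagged human NAMPT, measured as NMN formation by mass spectrometry after a 30 min room-temperature reaction containing 1 μM NAM, 100 μM PRPP and 2.5 mM ATP.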

Row | Structure (SMILES) | IC50 ([1]; SRB) [nM] | IC50 ([2]; NAMPT enzymatic reaction) [nM] | IC50 ([2]; NAMPT enzymatic assay) [nM] | IC50 ([1]; SRB assay) [nM]
1 | CCCOc1ccc(Cl)cc1S(=O)(=O)c1ccc(CNC(=O)c2cc3ccncc3s2)cc1 | 1.2 | 5.7 | – | –
2 | COc1cc(OC)cc(S(=O)(=O)c2ccc(CNC(=O)c3cnc4nccn4c3)cc2)c1 [N-({4-[(3,5-dimethoxybenzene)sulfonyl]phenyl}methyl)imidazo[1,2-a]pyrimidine-6-carboxamide] | 1.6 | 2.4 | – | –
3 | O=C(NCc1ccc(S(=O)(=O)c2ccc(CO)cc2)cc1)c1cc2ccncc2s1 [N-[(4-{[4-(hydroxymethyl)benzene]sulfonyl}phenyl)methyl]thieno[2,3-c]pyridine-2-carboxamide] | 6.6 | – | 3.8 | –
4 | Cc1ccc(Cl)cc1S(=O)(=O)c1ccc(CNC(=O)c2ccc3nccn3c2)cc1 [N-({4-[(5-chloro-2-methylbenzene)sulfonyl]phenyl}methyl)imidazo[1,2-a]pyridine-6-carboxamide] | 3.7 | 1.9 | – | –
5 | Cc1cncc(S(=O)(=O)c2ccc(CNC(=O)c3cc4ccncc4s3)cc2)n1 [N-{[4-(6-methylpyrazine-2-sulfonyl)phenyl]methyl}thieno[2,3-c]pyridine-2-carboxamide] | 5.1 | – | 4.8 | –
6 | CC(=O)c1cccc(S(=O)(=O)c2ccc(CNC(=O)c3cc4ccncc4o3)cc2)c1 [N-({4-[(3-acetylbenzene)sulfonyl]phenyl}methyl)furo[2,3-c]pyridine-2-carboxamide] | 8 | 17.6 | – | –
7 | Cn1ncc2c(S(=O)(=O)c3ccc(CNC(=O)c4cnc5[nH]ncc5c4)cc3)cccc21 [N-{[4-(1-methyl-1H-indazole-4-sulfonyl)phenyl]methyl}-1H-pyrazolo[3,4-b]pyridine-5-carboxamide] | 6.4 | – | 20.3 | –
8 | O=C(NCc1ccc(S(=O)(=O)c2ccc3c(c2)OCCO3)cc1)c1cc2ccncc2o1 [N-{[4-(2,3-dihydro-1,4-benzodioxine-6-sulfonyl)phenyl]methyl}furo[2,3-c]pyridine-2-carboxamide] | 6.2 | – | 5.5 | –
9 | CCOc1cc(Cl)ccc1S(=O)(=O)c1ccc(CNC(=O)c2cc3ccncc3s2)cc1 | < 0.4 | 2.4 | – | –
10 | COc1cc(C(F)(F)F)ccc1S(=O)(=O)c1ccc(CNC(=O)c2cnc3nccn3c2)cc1 | 22.4 | – | 4.4 | –
11 | O=C(NCc1ccc(S(=O)(=O)c2cccc(C(F)(F)F)n2)cc1)c1ccc2nccn2c1 [N-({4-[6-(trifluoromethyl)pyridine-2-sulfonyl]phenyl}methyl)imidazo[1,2-a]pyridine-6-carboxamide] | 1.5 | – | 8.7 | –
12 | Cc1ccc(C)c(S(=O)(=O)c2ccc(CNC(=O)c3cnc4[nH]ncc4c3)cc2)c1 [N-({4-[(2,5-dimethylbenzene)sulfonyl]phenyl}methyl)-1H-pyrazolo[3,4-b]pyridine-5-carboxamide] | 17.2 | 20.9 | – | –
13 | O=C(NCc1ccc(S(=O)(=O)c2ccc(C(F)(F)F)cc2Cl)cc1)c1cc2cnccc2[nH]1 | 25.4 | – | 127 | –
14 | COc1ccc(Cl)cc1NS(=O)(=O)c1ccc(CNC(=O)c2cc3cnccc3[nH]2)cc1 [N-({4-[(5-chloro-2-methoxyphenyl)sulfamoyl]phenyl}methyl)-1H-pyrrolo[3,2-c]pyridine-2-carboxamide] | – | 197 | – | 18000
15 | O=C(NCc1ccc(S(=O)(=O)c2ccc(C(F)(F)F)cn2)cc1)c1cnc2[nH]ncc2c1 [N-({4-[5-(trifluoromethyl)pyridine-2-sulfonyl]phenyl}methyl)-1H-pyrazolo[3,4-b]pyridine-5-carboxamide] | 100 to 1000 | – | 100 to 1000 | –
16 | O=C(NCc1ccc(S(=O)(=O)c2cc(F)ccc2CO)cc1)c1cnc2[nH]ncc2c1 [N-[(4-{[5-fluoro-2-(hydroxymethyl)benzene]sulfonyl}phenyl)methyl]-1H-pyrazolo[3,4-b]pyridine-5-carboxamide] | 100 to 1000 | – | 109 | –
17 | O=C(NCc1ccc(S(=O)(=O)c2ccc(C(F)(F)F)c(F)c2)cc1)c1cc2cnccc2[nH]1 [N-[(4-{[3-fluoro-4-(trifluoromethyl)benzene]sulfonyl}phenyl)methyl]-1H-pyrrolo[3,2-c]pyridine-2-carboxamide] | 13 | – | 10.3 | –
18 | Cc1ccc(S(=O)(=O)c2ccc(CNC(=O)c3cc4ccncc4s3)cc2)cc1F [N-({4-[(3-fluoro-4-methylbenzene)sulfonyl]phenyl}methyl)thieno[2,3-c]pyridine-2-carboxamide] | – | 3 | – | 2.8
19 | O=C(NCc1ccc(S(=O)(=O)c2ccc(C(F)(F)F)cc2OCC(F)(F)F)cc1)c1ccc2nccn2c1 [N-[(4-{[2-(2,2,2-trifluoroethoxy)-4-(trifluoromethyl)benzene]sulfonyl}phenyl)methyl]imidazo[1,2-a]pyridine-6-carboxamide] | 1.2 | – | 7 | –
20 | COc1c(Cl)cccc1S(=O)(=O)c1ccc(CNC(=O)c2cc3ccncc3o2)cc1 | 62.3 | 19.2 | – | –
21 | O=C(NCc1ccc(S(=O)(=O)c2ccc3ncccc3c2)cc1)c1ccc2nccn2c1 [N-{[4-(quinoline-6-sulfonyl)phenyl]methyl}imidazo[1,2-a]pyridine-6-carboxamide] | 0.83 | – | 5.16 | –
22 | Cc1ccc(Cl)c(S(=O)(=O)c2ccc(CNC(=O)c3cnc4nccn4c3)cc2)c1Cl | 56 | 7.3 | – | –

Row | Structure (SMILES) | IC50 ([1]; SRB) [nM] | IC50 ([2]; NAMPT enzymatic reaction) [nM] | IC50 ([2]; NAMPT enzymatic assay) [nM] | IC50 ([1]; SRB assay) [nM]
23 | O=C(NCc1ccc(S(=O)(=O)c2c(Cl)cccc2Cl)cc1)c1cnc2nccn2c1 | 100 to 1000 | 13.4 | – | –
24 | CCCCOc1ccc(Cl)cc1S(=O)(=O)c1ccc(CNC(=O)c2cc3ccncc3o2)cc1 | 66.3 | 24.3 | – | –
25 | O=C(NCc1ccc(S(=O)(=O)c2cc(Cl)cc(Cl)c2)cc1)c1cc2cnccc2[nH]1 | 0.4 | 1 | – | –
26 | COc1cccc(S(=O)(=O)c2ccc(CNC(=O)c3cc4cnccc4[nH]3)cc2)c1 [N-({4-[(3-methoxybenzene)sulfonyl]phenyl}methyl)-1H-pyrrolo[3,2-c]pyridine-2-carboxamide] | – | 7 | – | 4
27 | CCOCc1ccccc1S(=O)(=O)c1ccc(CNC(=O)c2cc3ccncc3o2)cc1 | 26 | – | 13.3 | –
28 | Cc1cc(C)c(S(=O)(=O)c2ccc(CNC(=O)c3ccc4nccn4c3)cc2)cc1C [N-({4-[(2,4,5-trimethylbenzene)sulfonyl]phenyl}methyl)imidazo[1,2-a]pyridine-6-carboxamide] | 14.1 | 9.34 | – | –
29 | Cc1cccc(S(=O)(=O)c2ccc(CNC(=O)c3ccc4nccn4c3)cc2)c1C [N-({4-[(2,3-dimethylbenzene)sulfonyl]phenyl}methyl)imidazo[1,2-a]pyridine-6-carboxamide] | 9.85 | 43.3 | – | –
30 | NS(=O)(=O)c1cccc(S(=O)(=O)c2ccc(CNC(=O)c3ccc4nccn4c3)cc2)c1 | 54.6 | 10.3 | – | –
31 | Cc1ncccc1S(=O)(=O)c1ccc(CNC(=O)c2cc3cnccc3[nH]2)cc1 [N-{[4-(2-methylpyridine-3-sulfonyl)phenyl]methyl}-1H-pyrrolo[3,2-c]pyridine-2-carboxamide] | 24 | – | 180 | –
32 | CC(C)Oc1cc(F)ccc1S(=O)(=O)c1ccc(CNC(=O)c2cc3ccncc3s2)cc1 | 1.6 | – | 5 | –
33 | Cc1ccc(F)cc1S(=O)(=O)c1ccc(CNC(=O)c2cc3ccncc3s2)cc1 [N-({4-[(5-fluoro-2-methylbenzene)sulfonyl]phenyl}methyl)thieno[2,3-c]pyridine-2-carboxamide] | – | 3 | – | 9.4
34 | CCc1cccc(S(=O)(=O)c2ccc(CNC(=O)c3cnc4nccn4c3)cc2)c1 | 4.1 | 3.8 | – | –
35 | CCCCOc1ccc(S(=O)(=O)c2ccc(CNC(=O)c3ccc4nccn4c3)cc2)c(C)c1 | 22.4 | 10 | – | –
36 | O=C(NCc1ccc(S(=O)(=O)c2ccc(Cl)c(C(F)(F)F)c2)cc1)c1cc2ccncc2s1 [N-[(4-{[4-chloro-3-(trifluoromethyl)benzene]sulfonyl}phenyl)methyl]thieno[2,3-c]pyridine-2-carboxamide] | – | 10 | – | 3.4
37 | CCCCOc1ccc(S(=O)(=O)c2ccc(CNC(=O)c3cc4ccncc4s3)cc2)cc1Cl | 12.5 | 4.8 | – | –
38 | Cc1cncc(S(=O)(=O)c2ccc(CNC(=O)c3cnc4nccn4c3)cc2)n1 [N-{[4-(6-methylpyrazine-2-sulfonyl)phenyl]methyl}imidazo[1,2-a]pyrimidine-6-carboxamide] | 52.5 | – | 1 | –
39 | O=C(NCc1ccc(S(=O)(=O)c2ccccc2)cc1)c1cnc2[nH]ncc2c1 [N-{[4-(benzenesulfonyl)phenyl]methyl}-1H-pyrazolo[3,4-b]pyridine-5-carboxamide] | – | 70 | – | 51
40 | COc1cc(F)cc(S(=O)(=O)c2ccc(CNC(=O)c3cnc4nccn4c3)cc2)c1 | 3.3 | 1.6 | – | –
41 | Cc1cc(C)n(-c2cccc(S(=O)(=O)c3ccc(CNC(=O)c4cnc5nccn5c4)cc3)c2)n1 | 4.1 | – | 1.8 | –
42 | Cc1cc(C)n(-c2cccc(S(=O)(=O)c3ccc(CNC(=O)c4cc5cnccc5[nH]4)cc3)c2)n1 | 1.6 | – | 13.2 | –
43 | CCc1ccc(S(=O)(=O)c2ccc(CNC(=O)c3ccc4nccn4c3)cc2)cc1 [N-({4-[(4-ethylbenzene)sulfonyl]phenyl}methyl)imidazo[1,2-a]pyridine-6-carboxamide] | 7.36 | 16.5 | – | –
44 | Cc1cc(F)ccc1S(=O)(=O)c1ccc(CNC(=O)c2cc3cnccc3[nH]2)cc1 [N-({4-[(4-fluoro-2-methylbenzene)sulfonyl]phenyl}methyl)-1H-pyrrolo[3,2-c]pyridine-2-carboxamide] | – | 19 | – | 27

— patent US12336981B2, “Compounds and compositions for the inhibition of NAMPT” (Valo Health, Inc., priority 2010, dated 2025)
